# From patent publication US11229618B2 (Amarin Pharmaceuticals Ireland Limited, priority 2012, dated 2022)
# How the values were obtained:
# Assay type in all cases: in vivo, human
# [1] = AAMI 6-week study: safety and tolerability
# Description: All randomized subjects that received at least 1 dose of study medication were included in the Safety Population.
# Safety evaluations were based on the safety population. Safety and tolerability were assessed in terms of AEs, vital signs, 12-lead ECG, clinical laboratory data, medical history, and study drug compliance. Safety and tolerability data were presented by treatment group.
# [2] = MARINE: RBC fatty acid concentrations, ratios and class proportions (GC/FID)
# Description: A multi-center, placebo-controlled randomized, double-blind, 12-week study with an open-label extension is performed to evaluate the efficacy and safety of AMR101 in patients with fasting triglyceride levels≥500 mg/dL. The primary objective of the study is to determine the efficacy of AMR101 2 g daily and 4 g daily, compared to placebo, in lowering fasting TG levels in patients with fasting TG levels≥500 mg/dL and ≤1500 mg/dL (≥5.65 mmol/L and ≤16.94 mmol/L).
# Eligible patients will be randomly assigned at Visit 4 (Week 0) to receive orally AMR101 2 g daily, AMR101 4 g daily, or placebo for the 12-week double-blind treatment period. AMR101 is provided in 1 g liquid-filled, oblong, gelatin capsules. The matching placebo capsule is filled with light liquid paraffin and contains 0 g of AMR101. During the double-blind treatment period, patients will take 2 capsules (AMR101 or matching placebo) in the morning and 2 in the evening for a total of 4 capsules per day. Patients in the AMR101 2 g/day treatment group will receive 1 AMR101 1 g capsule and 1 matching placebo capsule in the morning and in the evening. Patients in the AMR101 4 g/day treatment group will receive 2 AMR101 1 g capsules in the morning and evening.
# Lipids were extracted from plasma and RBC suspensions and converted into fatty acid methyl esters for analysis using a standard validated gas chromatography/flame ionization detection method. Fatty acid parameters were compared between EPA treatment groups and placebo using an ANCOVA model with treatment, gender, type of statin therapy, and presence of diabetes as factors, and the baseline parameter value as a covariate. LSMs, SEs, and 2-tailed 95% confidence intervals for each treatment group and for each comparison were determined.
# The monounsaturated fatty acid group included myristoleic, palmitoleic, cis-vaccenic, oleic, gondoic/gadoleic, erucic and nervonic acids. The saturated fatty acid group included myristic, palmitic, stearic, arachidic, behenic and lignoceric acids. The “total omega-3” group included α-linolenic, stearidonic, eicosatrienoic, ω-3 arachidonic, eicosapentaenoic, ω-3 docosapentaenoic and docosahecaenoic acids. The “total omega-6” group included linoleic, γ-linolenic, eicosadienoic, dihomo-γ-linolenic, ω-6 arachidonic, adrenic, and ω-6 docosapentaenoic acids. The “total fatty acid” group represented the sum of the monounsaturated, saturated, total omega-3 and total omega-6 groups.
# fasting TG levels = assay: ANCHOR: fasting TG lowering and LDL-C; details: for median percent reductions in TG from baseline, 4 g/day compared with 2 g/day: 12 weeks
# Description: A multi-center, placebo-controlled, randomized, double-blind, 12-week study was performed to evaluate the efficacy and safety of >96% E-EPA in patients with fasting triglyceride levels≥200 mg/dl and <500 mg/dl despite statin therapy (the mean of two qualifying entry values needed to be ≥185 mg/dl and at least one of the values needed to be ≥200 mg/dl). The primary objective of the study was to determine the efficacy of >96% E-EPA 2 g daily and 4 g daily, compared to placebo, in lowering fasting TG levels in patients with high risk for cardiovascular disease and with fasting TG levels≥200 mg/dL and <500 mg/dL, despite treatment to LDL-C goal on statin therapy.
# The primary efficacy variable for the double-blind treatment period was percent change in TG from baseline to Week 12 endpoint. The secondary efficacy variables for the double-blind treatment period included the following: • Percent changes in total cholesterol (TC), high-density lipoprotein cholesterol (HDL-C), LDL-C, calculated non-HDL-C, and very low-density lipoprotein cholesterol (VLDL-C) from baseline to Week 12 endpoint; • Percent change in very low-density lipoprotein TG from baseline to Week 12; • Percent changes in apolipoprotein A-I (apo A-I), apolipoprotein B (apo B), and apo A-I/apo B ratio from baseline to Week 12; • Percent changes in lipoprotein(a) from baseline to Week 12; • Percent changes in LDL particle number and size, measured by nuclear magnetic resonance, from baseline to Week 12; • Percent change in remnant-like particle cholesterol from baseline to Week 12; • Percent change in oxidized LDL from baseline to Week 12; • Changes in FPG and HbA1c from baseline to Week 12; • Change in insulin resistance, as assessed by the homeostasis model index insulin resistance, from baseline to Week 12; • Percent change in lipoprotein associated phospholipase A2 (Lp-PLA2) from baseline to Week 12; • Change in intracellular adhesion molecule-1 from baseline to Week 12; • Change in interleukin-2 from baseline to Week 12; • Change in plasminogen activator inhibitor-1 from baseline to Week 12. Note: this parameter will only be collected at sites with proper storage conditions; • Change in hsCRP from baseline to Week 12; and • Change in plasma concentration and red blood cell membrane content of fatty acid from baseline to Week 12 including EPA, docosapentaenoic acid (DPA), docosahexaenoic acid (DHA), arachidonic acid (AA), dihomo-γ-linolenic acid (DGLA), the ratio of EPA/AA, ratio of oleic acid/stearic acid (OA/SA), and the ratio of total omega-3 acids over total omega-6 acids.
# The primary efficacy analysis was performed using a 2-way analysis of covariance (ANCOVA) model with treatment as a factor and baseline TG value as a covariate. […]
# [3] = red blood cell, IPE 4 g/day vs placebo, week 12, P <0.0001
smiles,measurement,setting,value
"CC/C=C\C/C=C\C/C=C\C/C=C\C/C=C\CCCC(=O)OCC [IPE, all-cis eicosa-5,8,11,14,17-pentaenoic acid ethyl ester]",TEAEs Definitely Related to the study drug,[1],No TEAEs were Definitely Related
same,deaths during the study,[1],no deaths
same,nausea Probably Related to the study drug,[1]; 1 g,One subject
same,subjects with nausea Possibly Related to the study drug,[1]; 1 g cohort,two
same,subjects with nausea Possibly Related to the study drug,[1]; 2 g cohort,one
same,serious adverse events,[1]; 2 g treatment group,One SAE
same,subjects discontinued due to TEAEs,[1]; 2 g treatment group,2 subjects
same,diarrhea Probably Related to the study drug,[1]; 4 g,Another subject
same,subjects with nausea Possibly Related to the study drug,[1]; 4 g cohort,two
same,severity and relatedness of most TEAEs,[1]; all groups,mild in severity and unrelated to study drug
same,treatment emergent AEs (TEAEs) reported,[1]; ethyl-EPA treatment groups (placebo groups 34 events),105 events
same,"Mono-unsaturated, proportion to total fatty acids, Mean placebo-adjusted percent change from baseline","[2]; RBCs, IPE 2 g/day vs placebo, P 0.0435",−3.1%
same,"Saturated, proportion to total fatty acids, Mean placebo-adjusted percent change from baseline","[2]; RBCs, IPE 2 g/day vs placebo, P 0.3278",1.1%
same,"Mono-unsaturated, proportion to total fatty acids, Mean placebo-adjusted percent change from baseline","[2]; RBCs, IPE 4 g/day vs placebo, P 0.0154",−3.9%
same,"Saturated, proportion to total fatty acids, Mean placebo-adjusted percent change from baseline","[2]; RBCs, IPE 4 g/day vs placebo, P 0.1145",1.9%
same,"Total omega-6, proportion to total fatty acids, Mean placebo-adjusted percent change from baseline","[2]; RBCs, IPE 4 g/day vs placebo, P <0.0001",−17.3%
same,AA Mean placebo-adjusted percent change from baseline,"[2]; red blood cell, IPE 2 g/day vs placebo, week 12, P 0.0008",−8.0%
same,Linoleic Mean placebo-adjusted percent change from baseline,"[2]; red blood cell, IPE 2 g/day vs placebo, week 12, P 0.1278",−4.7%
same,Oleic Mean placebo-adjusted percent change from baseline,"[2]; red blood cell, IPE 2 g/day vs placebo, week 12, P 0.3736",−2.1%
same,DHA Mean placebo-adjusted percent change from baseline,"[2]; red blood cell, IPE 2 g/day vs placebo, week 12, P 0.5859",−1.8%
same,Stearic Mean placebo-adjusted percent change from baseline,"[2]; red blood cell, IPE 2 g/day vs placebo, week 12, P 0.5886",1.1%
same,Palmitic Mean placebo-adjusted percent change from baseline,"[2]; red blood cell, IPE 2 g/day vs placebo, week 12, P 0.9465",−0.1%
same,DPAn-3 Mean placebo-adjusted percent change from baseline,"[2]; red blood cell, IPE 2 g/day vs placebo, week 12, P <0.0001",86.4%
same,DHA Mean placebo-adjusted percent change from baseline,"[2]; red blood cell, IPE 4 g/day vs placebo, week 12, P 0.1216",−5.2%
same,Oleic Mean placebo-adjusted percent change from baseline,"[2]; red blood cell, IPE 4 g/day vs placebo, week 12, P 0.1325",−3.7%
same,Palmitic Mean placebo-adjusted percent change from baseline,"[2]; red blood cell, IPE 4 g/day vs placebo, week 12, P 0.7427",−0.7%
same,Stearic Mean placebo-adjusted percent change from baseline,"[2]; red blood cell, IPE 4 g/day vs placebo, week 12, P 0.7565",−0.7%
same,DPAn-3 Mean placebo-adjusted percent change from baseline,[2]; [3],105.6%
same,Linoleic Mean placebo-adjusted percent change from baseline,[2]; [3],−13.0%
same,effect on LDL-C,fasting TG levels,without raising LDL-C
same,"median percent reductions in TG from baseline, 4 g/day compared with 2 g/day",fasting TG levels,higher with IPE 4 g/day than with 2 g/day
same,"median percent reductions in TG from baseline, 4 g/day compared with 2 g/day",fasting TG levels; listed as EPA,higher for subjects administered about 4 grams of EPA per day
same,effect on TG levels,fasting TG levels; patients with high TG levels on statin therapy,significantly reduced TG levels
